The values that follow come from article PMC9143450, “Oxonitrogenated Derivatives of Eremophilans and Eudesmans: Antiproliferative and Anti-Trypanosoma cruzi Activity” (Molecules, 2022).

The subject of series [1] is Trypanosoma cruzi epimastigotes (RA strain). Put plainly: In vitro anti-Trypanosoma cruzi assay ((3H) thymidine uptake). In kind it is cell-based. The conditions noted are these: for IC50: epimastigotes (RA strain), ± SD; for Selectivity Index on T. cruzi epimastigotes: CC50 splenocytes / IC50 epimastigotes. How it is done:
Trypanosoma cruzi epimastigotes (RA strain, from discrete typing unit (DTU) VI) were grown in a biphasic medium. Cultures were maintained by weekly passages at 28 °C [18].
The growth inhibition of T. cruzi epimastigotes was evaluated by a (^3H) thymidine uptake assay as previously described. Natural sesquiterpenes and derivatives were evaluated at concentrations ranging from 1.5 to 50 µg/mL. Benznidazole (Active Pharmaceutical Ingredient) was used as positive control (Elea). The percentage of inhibition was calculated as 100 = {((cpm of treated parasites)/(cpm of untreated parasites)) × 100}.
Figure 5 Effect of the natural sesquiterpene tessaric acid (1), ilicic acid (2), and ilicic alcohol (3) and their derivatives on T. cruzi. Epimastigotes (RA strain) were cultured in the presence of the compounds (50–1.5 µg/mL). Determinations were performed by triplicate. The results are expressed as the mean ± SD. (A) Effect of tessaric acid and derivatives on epimastigotes; (B) Effect of ilicic acid and derivatives on epimastigotes; (C) Effect of ilicic alcohol and derivatives on epimastigotes.

Series [2] deals with splenocytes obtained from Balb/c mouse. The experiment in a line: Cytotoxicity on primary cell culture (flow cytometry, PI). It counts as cell-based. The following applies: ± SD, read-out: Cytotoxic activity on spleen cells (CC50). As to the method: (§1) The cytotoxicity of the natural sesquiterpenes (1–3) and derivatives (4–19) was determined on primary cell cultures (splenocytes obtained from Balb/c mouse). […] Derivatives of tessaric acid have shown an improvement in CC50 values in comparison with the natural sesquiterpene 1. […] All the derivatives synthesized from alcohol ilicic (compounds 10–19) were more toxic to mammalian cells than the natural compound (3).
(§2) The cytotoxicity of the compounds was evaluated on splenocytes obtained from Balb/c mouse (1.5 × 10^5) and incubated with different drug dilutions (5–200 μg/mL) as previously described. Cell death was determined by flow cytometry using a BD FACSaria II cytometer. Cells incubated only with drug vehicle were used as 100% viability control, and death percentage was calculated according to the following formula: Death%=1−(%PI^−cells)drug−treated/(%PI^−cells)100% viability control × 100
(§3) The concentration capable of causing 50% cell death (CC50) was determined using a non-linear regression approach.
Background: A flow cytometer gives signals particle by particle.

Experiment in series [3]: as above
In kind it is cell-based. The conditions noted are these: Balb/c, mouse, primary splenocytes (spleen cells), ± SD, read-out: Cytotoxic activity on spleen cells (CC50). As to the method:
as §1, §2, §3

In another series the test system is T-47D. The experiment in a line: Antiproliferative SRB assay (NCI protocol), T-47D. It counts as cell-based, human. The following applies: for GI50: Homo sapiens, T47D, T-47D (breast), 48 h drug exposure, SRB, ± SD; for Selectivity index (SI) on tumor cells: CC50 splenocytes / GI50 T-47D. As to the method:
(§4) In vitro antiproliferative activity was evaluated using the protocol of the National Cancer Institute (NCI) after 48 h of drug exposure using the sulforhodamine B (SRB) assay.
(§5) The following human solid tumor cell lines were used in this study: HBL-100 (breast), HeLa (cervix), SW1573 (non-small cell lung), T-47D (breast), A549 (lung), and WiDr (colon). These cell lines were a kind gift from Prof. G. J. Peters (VU Medical Center, Amsterdam, The Netherlands). Cells were maintained in 25 cm^2 culture flasks in RPMI 1640 supplemented with 5% heat-inactivated fetal calf serum and 2 mM L-glutamine in a 37 °C, 5% CO2, 95% humidified air incubator. Exponentially growing cells were trypsinized and resuspended in antibiotic containing medium (100 units penicillin G and 0.1 mg of streptomycin per mL). Single cell suspensions displaying > 97% viability by trypan blue dye exclusion test were subsequently counted. After counting, dilutions were made to give the appropriate cell densities for inoculation onto 96-well microtiter plates. Cells were inoculated in a volume of 100 μL per well at densities of 5000 (WiDr and T-47D), and 2500 (A549, HeLa, SW1573 and HBL-100) cells per well, based on their doubling times.
(§6) Chemosensitivity tests were performed using the SRB assay of the NCI with slight modifications. Briefly, pure compounds were initially dissolved in DMSO at 400 times the desired final maximum test concentration. Control cells were exposed to an equivalent concentration of DMSO (0.25% v/v, negative control). Each agent was tested in triplicates at different dilutions in the range 1–100 μM. Drug treatment started on day 1 after plating. Drug incubation periods were 48 h, after which cells were precipitated with 25 μL of ice-cold 50% (w/v) trichloroacetic acid and fixed for 60 min at 4 °C. Then, the SRB assay was performed. The optical density (OD) of each well was measured at 530 nm, using BioTek’s PowerWave XS Absorbance Microplate Reader. Values were corrected for background OD from wells containing only culture medium. The percentage growth (PG) was calculated with respect to untreated control cells (C) at each level of drug concentrations based on the difference in OD at the start time (T0) and at the end of drug exposure (T), according to NCI formulas. Therefore, if T is greater than or equal to T0, the calculation is 100 × ((T − T0)/(C − T0)). If T is lower than T0, denoting cell death, the calculation is 100 × ((T − T0)/(T0)). The effect is defined as the growth percentage, where 50% growth inhibition (GI50) represents the concentration at which PG is +50. Based on these calculations, a PG value of 0 corresponds to the number of cells present at the beginning of drug exposure, while negative PG values denote net cell death.
For orientation: Sulforhodamine B stains cellular protein and so reports cell mass.

The subject of a further series is SW1573. The experiment in a line: Antiproliferative SRB assay (NCI protocol), SW1573. It counts as cell-based, human. The conditions noted are these: for GI50: Homo sapiens, SW1573 (non-small cell lung), 48 h drug exposure, SRB, ± SD; for Selectivity index (SI) on tumor cells: CC50 splenocytes / GI50 SW1573. As to the method:
as §4, §5, §6

A further series deals with HeLa. Put plainly: Antiproliferative SRB assay (NCI protocol), HeLa. It counts as cell-based, human. The conditions noted are these: for GI50: Homo sapiens, HeLa (cervix), 48 h drug exposure, SRB, ± SD; for Selectivity index (SI) on tumor cells: CC50 splenocytes / GI50 HeLa. As to the method: as §4, §5, §6
The subject of another series is WiDr. The experiment in a line: Antiproliferative SRB assay (NCI protocol), WiDr. In kind it is cell-based, human. The following applies: for GI50: Homo sapiens, WiDr (colon), 48 h drug exposure, SRB, ± SD; for Selectivity index (SI) on tumor cells: CC50 splenocytes / GI50 WiDr. As to the method:
as §4, §5, §6

Another series relates to HBL-100. The experiment in a line: Antiproliferative SRB assay (NCI protocol), HBL-100. It counts as cell-based, human. The conditions noted are these: for GI50: Homo sapiens, HBL-100 (breast), 48 h drug exposure, SRB, ± SD; for Selectivity index (SI) on tumor cells: CC50 splenocytes / GI50 HBL-100. As to the method:
as §4, §5, §6

In series [4] the test system is HeLa, T-47D, WiDr, A549, HBL-100, and SW1573 cell lines. Put plainly: Antiproliferative SRB assay, whole panel of human solid tumor cell lines. It counts as cell-based. The conditions noted are these: for GI50: Homo sapiens, minimal to maximal GI50 across the cell lines tested, 48 h, SRB, read-out: GI50 values, range over all cell lines tested. How it is done: as §4, §5, §6

A further series deals with A549. The experiment in a line: Antiproliferative SRB assay (NCI protocol), A549. It counts as cell-based, human. The following applies: for Selectivity index (SI) on tumor cells: CC50 splenocytes / GI50 A549; for GI50: Homo sapiens, A549 (lung), 48 h drug exposure, SRB, ± SD. How it is done:
as §4, §5, §6

Structures are written as SMILES.

As to `C=C(C(=O)O)[C@@H]1CCC2=CC(=O)C[C@H](C)[C@@]2(C)C1` [Compound 1, tessaric acid], the “Trypanocidal activity (in words)” value in series [1] (T. cruzi) is reported as “nor trypanocidal activity”. Further, the IC50 (commonly the midpoint of a concentration-inhibition curve) in [1] (Trypanosoma cruzi) was > 201 µM. Further, the CC50 (usually the concentration that lowers cell viability or growth by half) in series [2] is 329 µM; in series [3], > 329 µM. For the same compound, the 50% growth inhibitory concentration (GI50) in the series on T-47D, with SW1573, in the series on HeLa, in the series on WiDr and in the series with HBL-100 was > 100 µM each time. For the same compound, in series [4] (solid tumor cell lines evaluated), the “Antiproliferative activity (in words)” value was “did not show antiproliferative activity”.
Turning to `C=C(C(=O)N(Cc1ccccc1)C(C)(C)C(=O)NCc1ccccc1)[C@@H]1CCC2=CC(=O)C[C@H](C)[C@@]2(C)C1` [Compound 7], in series [1], the “Selectivity Index on T. cruzi epimastigotes” value amounted to 8.0. Moreover, the IC50 in [1] (Trypanosoma cruzi) was 9.3 µM; in series [1], 4.7 µM. Moreover, in series [3], the CC50 was 38.1 µM. Besides, the “Selectivity index (SI) on tumor cells” value was 1.7 in the series with T-47D; 1.3 in the series with SW1573; 2.0 with HeLa; 1.0 in the series on WiDr; 0.9 in the series on HBL-100; 1.4 with A549. Also, the GI50 (as a rule, the concentration giving 50% growth inhibition) with T-47D turned out to be 22 µM; in the series on SW1573, 30 µM; in the series with HeLa, 19 µM; with WiDr, 37 µM; in the series on HBL-100, 41 µM; in the series with A549, 27 µM. Besides, the GI50 in series [4] is 17 to 64 µM.
`C=C(C(=O)N(c1ccccc1)C(C)(C)C(=O)NC(C)(C)C)C1CCC2(C)CCCC(C)(O)C2C1` (stereo not drawn) [Compound 10]: the “Selectivity Index on T. cruzi epimastigotes” value in [1] is 4.0. The compound further gave an IC50 in [1] (Trypanosoma cruzi) of 19.6 µM. Besides, the half-maximal cytotoxic concentration (CC50) in [3] was determined as 78.2 µM. For the same compound, the “Selectivity index (SI) on tumor cells” value in the series with T-47D stood at 2.2; with SW1573, 1.6; with HeLa, 2.1; with WiDr, 1.7; in the series with HBL-100 it was 1.2; in the series with A549, 2.5. Moreover, the 50% growth inhibitory concentration (GI50) with T-47D came to 36 µM; in the series on SW1573 it was 50 µM; in the series on HeLa, 37 µM; in the series with WiDr, 45 µM; with HBL-100 it was 64 µM; in the series with A549 it was 31 µM. Moreover, in series [4], the GI50 lay within 17 to 64 µM.
As to `C=C(C(=O)N(Cc1ccccc1)C(C)(C)C(=O)NC1CCCCC1)[C@@H]1CCC2=CC(=O)C[C@H](C)[C@@]2(C)C1` [Compound 9], in series [1], the “Selectivity Index on T. cruzi epimastigotes” value was found to be 1.7. In addition, 45.1 µM corresponded to half-maximal inhibition in series [1] (Trypanosoma cruzi) (IC50). The CC50 in series [3] was 76.5 µM. For the same compound, the “Selectivity index (SI) on tumor cells” value in the series with T-47D is reported as 3.6; with SW1573, 2.6; with HeLa it was 3.2; in the series with WiDr, 2.0; in the series with HBL-100 it was 1.6; in the series with A549, 2.7. The GI50 in the series on T-47D was 21 µM; in the series on SW1573, 30 µM; in the series on HeLa, 24 µM; in the series with WiDr it was 39 µM; with HBL-100 it was 47 µM; in the series with A549, 28 µM. The GI50 in series [4] lay within 17 to 64 µM.
Consider `C=C(C(=O)N(c1ccccc1)C(C)(C)C(=O)NC1CCCCC1)[C@@H]1CCC2=CC(=O)C[C@H](C)[C@@]2(C)C1` [Compound 8], for which the “Selectivity Index on T. cruzi epimastigotes” value in series [1] stood at 0.3. In series [1] (Trypanosoma cruzi), this compound gave an IC50 of 63.2 µM. Further, the 50% cytotoxic concentration (CC50) in [3] came out at 19.8 µM. Moreover, the “Selectivity index (SI) on tumor cells” value in the series with T-47D worked out at 0.7; in the series on SW1573, 0.7; with HeLa it was 0.6; in the series with WiDr, 0.7; in the series with HBL-100, 0.5; in the series on A549, 0.7. For the same compound, the GI50 worked out at 27 µM in the series with T-47D; 30 µM in the series on SW1573; 31 µM in the series with HeLa; 30 µM with WiDr; 37 µM with HBL-100; 27 µM in the series with A549. Further, the GI50 in series [4] fell in the range of 17 to 64 µM.
